Values of other authors, collected in patent US20230000079A1, “COMBINATION COMPRISING A TRIKETONE HERBICIDE AND A DIPHENYLETHER HERBICIDE, AND A METHOD FOR MAKING AND USING THE COMBINATION” (Generic Crop Science LLC, priority 2021, published 2023).
≈ marks a conversion by molar mass, not a printed value.

CS(=O)(=O)c1ccc(C(=O)C2C(=O)CCCC2=O)c([N+](=O)[O-])c1 [Mesotrione, 2-[4-(methylsulfonyl)-2-nitrobenzoyl]cyclohexane-1,3-dione]
water solubility (20° C.): 1,500 mg/L

CCOc1cc(Oc2ccc(C(F)(F)F)cc2Cl)ccc1[N+](=O)[O-] [Oxyfluorfen, 2-chloro-4-(trifluoromethyl)phenyl 3-ethoxy-4-nitrophenyl ether]
solubility in most organic solvents: highly soluble | solubility in water: 0.1 µg/mL (≈ 0.276 µM)
